Target: PIM1 (Homo sapiens (Human), UniProt P11309)
Experiment: biochemical
Type: biochemical
Conditions: 20 pM PIM1, 1 μM FAM-peptide, 10 μM ATP, 90 minutes at room temperature; read-out: PIM1 LC3K (KI)

Chain of PIM1 (P11309 whole entry): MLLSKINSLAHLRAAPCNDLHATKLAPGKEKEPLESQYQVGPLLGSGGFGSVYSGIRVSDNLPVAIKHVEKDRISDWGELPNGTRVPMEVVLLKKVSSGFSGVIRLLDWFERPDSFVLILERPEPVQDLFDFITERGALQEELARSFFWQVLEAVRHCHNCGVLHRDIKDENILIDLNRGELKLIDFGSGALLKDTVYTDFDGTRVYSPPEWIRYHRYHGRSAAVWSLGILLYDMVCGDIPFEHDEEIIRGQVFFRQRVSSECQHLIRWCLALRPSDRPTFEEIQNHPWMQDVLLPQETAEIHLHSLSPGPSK

Row | Ki | SMILES
1 | 0.061 nM | Cn1ncc(NC(=O)c2nc(-c3c(F)cccc3C(F)(F)F)sc2N)c1[C@@H]1CC[C@@H](N)[C@@H](F)CO1 [Example 278, 5-amino-N-(5-((2S,5R,6R)-5-amino-6-fluorooxepan-2-yl)-1-methyl-1H-pyrazol-4-yl)-2-(2-fluoro-6-(trifluoromethyl)phenyl)thiazole-4-carboxamide]
2 | 0.083 nM | CO[C@H]1CO[C@H](c2c(NC(=O)c3nc(-c4c(F)cccc4C(F)(F)F)sc3N)cnn2C)CC[C@H]1N [Example 279, 5-amino-N-(5-((2S,5R,6R)-5-amino-6-methoxyoxepan-2-yl)-1-methyl-1H-pyrazol-4-yl)-2-(2-fluoro-6-(trifluoromethyl)phenyl)thiazole-4-carboxamide]
3 | 0.014 nM | CO[C@H]1CO[C@H](c2c(NC(=O)c3nc(-c4c(F)cccc4Cl)sc3N)cnn2C)CC[C@H]1N [Example 280, 5-amino-N-(5-((2S,5R,6R)-5-amino-6-methoxyoxepan-2-yl)-1-methyl-1H-pyrazol-4-yl)-2-(2-chloro-6-fluorophenyl)thiazole-4-carboxamide]
4 | 0.007 nM | CO[C@H]1CO[C@H](c2c(NC(=O)c3nc(-c4cc(Cl)ccc4F)sc3N)cnn2C)CC[C@H]1N [Example 281, 5-amino-N-(5-((2S,5R,6R)-5-amino-6-methoxyoxepan-2-yl)-1-methyl-1H-pyrazol-4-yl)-2-(5-chloro-2-fluorophenyl)thiazole-4-carboxamide]
5 | 0.058 nM | Cn1ncc(NC(=O)c2nc(-c3cnn(C)c3C(F)(F)F)sc2N)c1[C@@H]1CC[C@@H](N)[C@H](F)CO1 [Example 282, 5-amino-N-(5-((2S,5R,6S)-5-amino-6-fluorooxepan-2-yl)-1-methyl-1H-pyrazol-4-yl)-2-(1-methyl-5-(trifluoromethyl)-1H-pyrazol-4-yl)thiazole-4-carboxamide]
6 | 0.171 nM | Cn1ncc(NC(=O)c2csc(-c3cnn(C)c3C(F)(F)F)n2)c1[C@@H]1CC[C@@H](N)[C@@H](F)CO1 [Example 283, N-(5-((2S,5R,6R)-5-amino-6-fluorooxepan-2-yl)-1-methyl-1H-pyrazol-4-yl)-2-(1-methyl-5-(trifluoromethyl)-1H-pyrazol-4-yl)thiazole-4-carboxamide]
7 | 0.22 nM | Cn1ncc(NC(=O)c2csc(-c3c(F)cccc3Cl)n2)c1[C@@H]1CC[C@@H](N)[C@H](F)CO1 [Example 284, N-(5-((2S,5R,6S)-5-amino-6-fluorooxepan-2-yl)-1-methyl-1H-pyrazol-4-yl)-2-(2-chloro-6-fluorophenyl)thiazole-4-carboxamide]
8 | 0.001 nM | CCOc1ccc(F)c(-c2nc(C(=O)Nc3cnn(C)c3[C@@H]3CC[C@@H](N)[C@H](F)CO3)cs2)c1F [Example 285, N-(5-((2S,5R,6S)-5-amino-6-fluorooxepan-2-yl)-1-methyl-1H-pyrazol-4-yl)-2-(3-ethoxy-2,6-difluorophenyl)thiazole-4-carboxamide]
9 | 0.053 nM | COc1ccc(-c2nc(C(=O)Nc3cnn(C)c3[C@@H]3CC[C@@H](N)[C@@H](F)CO3)cs2)c(F)c1 [Example 287, N-(5-((2S,5R,6R)-5-amino-6-fluorooxepan-2-yl)-1-methyl-1H-pyrazol-4-yl)-2-(2-fluoro-4-methoxyphenyl)thiazole-4-carboxamide]
10 | 0.035 nM | COc1cc(F)c(-c2nc(C(=O)Nc3cnn(C)c3[C@@H]3CC[C@@H](N)[C@@H](F)CO3)cs2)c(F)c1 [Example 288, N-(5-((2S,5R,6R)-5-amino-6-fluorooxepan-2-yl)-1-methyl-1H-pyrazol-4-yl)-2-(2,6-difluoro-4-methoxyphenyl)thiazole-4-carboxamide]
11 | 0.08 nM | Cn1ncc(NC(=O)c2ccc(F)c(-c3c(F)cc(C(C)(C)O)cc3F)n2)c1[C@@H]1CC[C@@H](N)[C@@H](F)CO1 [Example 289, N-(5-((2S,5R,6R)-5-amino-6-fluorooxepan-2-yl)-1-methyl-1H-pyrazol-4-yl)-6-(2,6-difluoro-4-(2-hydroxypropan-2-yl)phenyl)-5-fluoropicolinamide]

Reference: patent US9328106B2, “Cyclic ether pyrazol-4-yl-heterocyclyl-carboxamide compounds and methods of use” (Genentech, Inc., priority 2012, dated 2016)
